Reference: PubChem BioAssay (NCI)
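Following 48 hours of exposure in 96-well plates, responses at five concentrations were used to interpolate endpoints linearly. GI50 marks 50% less growth. TGI marks complete inhibition of growth.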

Experiments:
Assay in all cases: NCI-60 cell line screen, 48 h
CAKI-1 renal = tested on: CAKI-1 renal
HCT-116 colon = tested on: HCT-116 colon
HL-60(TB) leukemia = tested on: HL-60(TB) leukemia
HS 578T breast = tested on: HS 578T breast
MDA-MB-435 = tested on: MDA-MB-435
MOLT-4 leukemia = tested on: MOLT-4 leukemia
NCI-H460 lung = tested on: NCI-H460 lung
PC-3 prostate = tested on: PC-3 prostate
RPMI-8226 leukemia = tested on: RPMI-8226 leukemia
SW-620 colon = tested on: SW-620 colon

Row | Structure (SMILES) | TGI (CAKI-1 renal) | TGI (HCT-116 colon) | TGI (HL-60(TB) leukemia) | TGI (HS 578T breast) | TGI (MDA-MB-435) | TGI (MOLT-4 leukemia) | TGI (NCI-H460 lung) | TGI (PC-3 prostate) | TGI (RPMI-8226 leukemia) | TGI (SW-620 colon) | GI50 (CAKI-1 renal) | GI50 (HCT-116 colon) | GI50 (HL-60(TB) leukemia) | GI50 (HS 578T breast) | GI50 (MDA-MB-435) | GI50 (MOLT-4 leukemia) | GI50 (NCI-H460 lung) | GI50 (PC-3 prostate) | GI50 (RPMI-8226 leukemia) | GI50 (SW-620 colon)
1 | Cc1c(Cl)c(C)c(Cl)c(O)c1Cl | 62.7 µM | 39.6 µM | 58.4 µM | 61.2 µM | 60.7 µM | 54.5 µM | 65.8 µM | 63.9 µM | 68.3 µM | > 100 µM | – | – | – | – | – | – | – | – | – | –
2 | COC(=O)[C@]12CC[C@@H](C)[C@H](C)[C@@H]1C1=CC[C@@H]3[C@@](C)(CC#N)C4=C(C[C@@]3(C)[C@]1(C)CC2)OC[C@]4(C)C=O | > 100 µM | 10.7 µM | 6.77 µM | 52.3 µM | 44.1 µM | 6.89 µM | 28 µM | 73.7 µM | 13.6 µM | 30.6 µM | 6.32 µM | 2.78 µM | 3.03 µM | 6 µM | 4.39 µM | 2.1 µM | 10.5 µM | 3.31 µM | 3.05 µM | 4.16 µM
3 | CCCCOC(=O)c1c(C)[nH]c(/C=C2\N=C(c3ccc[nH]3)C=C2OC)c1C | 3.85 µM | 1.36 µM | 4 µM | 1.19 µM | 1.74 µM | 9.85 µM | 2 µM | > 24.9 µM | 2.04 µM | 1.44 µM | 0.071 µM | 0.0412 µM | 0.581 µM | 0.147 µM | 0.123 µM | 0.138 µM | 0.0613 µM | 0.136 µM | 0.175 µM | 0.0569 µM
4 | Nc1c(C(=O)Nc2cccc(C(F)(F)F)c2)sc2nc3c(cc12)CCCCCC3 | 10.2 µM | 4.34 µM | > 100 µM | 9.92 µM | 13.9 µM | 35.1 µM | 7.52 µM | 32.7 µM | 17.5 µM | 21.2 µM | 2.49 µM | 1.69 µM | 11.3 µM | 3.25 µM | 2.1 µM | 11.1 µM | 2.32 µM | 4.31 µM | 2.96 µM | 3.75 µM
5 | C=C(Br)COc1ccc2c(C)cc(=O)oc2c1 | > 100 µM | > 100 µM | > 100 µM | > 100 µM | > 100 µM | > 100 µM | > 100 µM | > 100 µM | > 100 µM | > 100 µM | – | – | – | – | – | – | – | – | – | –
6 | COc1cc2c(cc1OCCCN1CCN(C(=S)SCCC(C#N)(c3ccccc3)c3ccccc3)CC1)N=C[C@@H]1CCCN1C2=O | 1.48 µM | 1.56 µM | – | 3.68 µM | 2.94 µM | – | – | > 100 µM | – | 1.94 µM | 0.357 µM | 0.388 µM | 0.876 µM | 0.56 µM | 0.555 µM | 0.375 µM | 0.891 µM | 1.45 µM | 0.42 µM | 0.514 µM
7 | CC[C@@]1(O)C(=O)OCc2c1cc1n(c2=O)Cc2c-1nc1cc(F)c(C)c3c1c2[C@@H](NC(=O)CO)CC3 | 0.117 µM | > 100 µM | 0.781 µM | > 100 µM | 3.05 µM | > 100 µM | 1.27 µM | > 100 µM | 1.67 µM | > 44.2 µM | < 0.01 µM | < 0.01 µM | < 0.01 µM | 1.25 µM | 0.0612 µM | < 0.01 µM | < 0.01 µM | 0.0985 µM | 0.0721 µM | < 0.01 µM
8 | O=C1OCC2=C1C(c1cccc(Cl)c1)c1cc3c(cc1N2CCO)CCC3 (centres undefined) | 14.7 µM | 2.92 µM | 0.353 µM | 22.2 µM | 0.0491 µM | 20.3 µM | 4.12 µM | 11.8 µM | 10.1 µM | 16.4 µM | 0.0493 µM | 0.0447 µM | 0.0318 µM | 0.0453 µM | 0.02 µM | 0.192 µM | 0.038 µM | 0.0398 µM | 0.0386 µM | 0.0369 µM
9 | COc1cc(C)[nH]c(=O)c1CNC(=O)c1c(C)n([C@H](C)C2CCN(CC(F)(F)F)CC2)c2ccccc12 | – | > 100 µM | 82.9 µM | > 100 µM | > 100 µM | > 100 µM | > 100 µM | > 100 µM | > 100 µM | > 100 µM | – | 59.3 µM | 28.5 µM | 95.3 µM | 46 µM | 35.9 µM | 42.9 µM | 47.4 µM | 32.5 µM | 65.3 µM
